Results taken from patent publication US20240407993A1, “PEPTIDE HAVING ANTI-AGING ACTIVITY, AND USE THEREOF” (CAREGEN CO., LTD., priority 2021, published 2024).

Key:
Fibronectin = Fibronectin gene expression by RT-PCR in fibroblasts; assay type: cell-based, mouse; details: NIH3T3 cells, peptide 1, 10, 50 μM, 24 hours; FIGS. 1A, 1C
Description: First, NIH3T3 cells (mouse fibroblast cell line) were seeded in a 6-well plate at a cell density of 3×10^5 cell/well, and then the cells were cultured in DMEM medium containing 10% fetal bovine serum (FBS) for 24 hours. The cultured cells were washed once with serum free DMEM medium, and the peptide of the present invention was mixed in 1 mL of the serum free DMEM medium at each of concentrations of 1, 10, and 50 μM, and dispensed into the cells. A positive control (PC) was treated with 5 ng/ml of TGF-β1 instead of the above peptide. The cells were cultured in a CO2 incubator at 37° C. for 24 hours.
The cultured cells were washed twice with PBS, and RNA was extracted from the cells using easy blue (iNtRON, Cat. No.: 17061, Korea). The amount of RNA extracted was quantified, 1,000 ng of RNA was added per tube, and RT reaction was performed using a kit (enzynomics, Cat. No.: PT200, Korea). RT-PCR was performed using a PCR kit (enzynomics, Cat. No.: […], Korea). The sequences of the primers of collagen, fibronectin, and elastin used in RT-PCR and the sequence of the primer of GAPDH used to compare the total RNA amount of each treatment group are shown in [Table 2].

HaCaT cells = test: Intracellular ROS level after UVB irradiation (DCFH-DA, FACS) in keratinocytes; assay type: cell-based, human; details: 15 mJ/cm^2 UVB, peptide 1, 10, 50 μM, 24 hours after irradiation, FIG. 4B
Description: The reactive oxygen species level increases when UV is irradiated. Therefore, it was confirmed whether the reactive oxygen species level decreased again and the aging phenomenon caused by oxidative stress in cells was inhibited when treated with the peptide of the present invention.
First, NIH3T3 cells and HaCaT cells were seeded in a 6-well plate at a cell density of 5×10^5 cell/well, respectively, and then the cells were cultured in DMEM medium containing 10% fetal bovine serum (FBS) for 24 hours. The cultured cells were washed once with serum free DMEM medium, and then the peptide of the present invention was mixed in 1 mL of the serum free DMEM medium at each of concentrations of 1, 10, and 50 μM, and dispensed into the cells. A positive control (PC) was treated with 2.5 mM of N-Acetylcysteine (NaC) instead of the above peptide.
The cells were cultured in a CO2 incubator at 37° C. for 1 hour. The medium of the cultured cells was transferred to a tube, 1 ml of PBS was added, and then the NIH3T3 cells were irradiated with 8 J/cm^2 of UVA and the HaCaT cells were irradiated with 15 mJ/cm^2 of UVB using a UV irradiator (VILBER LOURMAT, Cat No.: 3102-BSU, France). […] After centrifugation, the cells were washed with PBS, and a fluorescence value was measured through FACS.

MMP-1 [1] = test: MMP-1 protein expression increased by UV irradiation, western blot in fibroblasts; assay type: cell-based, mouse; details: NIH3T3 cells, 6 J/cm^2 UVA, peptide 1, 10, 50 μM, 24 hours after irradiation; FIG. 6A
Description: (§1) The expression of MMP-1 encoding proteins related to collagen degradation increases by ultraviolet irradiation. Therefore, it was confirmed whether the expression of the MMP-1 protein was inhibited again and the cell aging phenomenon was inhibited when treated with the peptide of the present invention.
(§2) First, NIH3T3 cells and HaCaT cells were seeded in a 6-well plate at a cell density of 5×10^5 cell/well, respectively, and then the cells were cultured in DMEM medium containing 10% fetal bovine serum (FBS) for 24 hours. The cultured cells were washed once with serum free DMEM medium, and the peptide of the present invention was mixed in 1 mL of the serum free DMEM medium at each of concentrations of 1, 10, and 50 μM, and dispensed into the cells. A positive control (PC) was treated with 2.5 mM of N-Acetylcysteine (NaC) instead of the above peptide.
(§3) The cells were cultured in a CO2 incubator at 37° C. for 1 hour. The medium of the cultured cells was transferred to a tube (e-tube), 1 ml of PBS was added, and then the NIH3T3 cells were irradiated with 6 J/cm^2 of UVA and the HaCaT cells were irradiated with 15 mJ/cm^2 of UVB using a UV irradiator (VILBER LOURMAT, Cat No.: 3102-BSU, France). After removing PBS, 900 μL of the medium transferred to the tube was added, and culture was performed in a CO2 incubator at 37° C. for 24 hours. […]

MMP-1 [2] = test: MMP-1 protein expression increased by UV irradiation, western blot in keratinocytes; assay type: cell-based, human; details: HaCaT cells, 15 mJ/cm^2 UVB, peptide 1, 10, 50 μM, 24 hours after irradiation; FIG. 6B
Description: as §1, §2, §3

LCACCLHNCNECQ
expression of the fibronectin gene (Fibronectin): gradually increased as a concentration of the peptide increased
intracellular reactive oxygen species level increased by UV irradiation (HaCaT cells): decreased
expression of MMP-1 increased by UV irradiation (MMP-1 [1]): inhibited
expression of MMP-1 increased by UV irradiation (MMP-1 [2]): inhibited
